Laboratory results as given in US6939948B1, “GD2 peptide mimics” (Health Research, Inc., priority 2002, dated 2005).
No end group written: not given here.

System: anti-GD2 ganglioside mAb 3F8
Experiment: Inhibition assay: inhibition of binding of anti-GD2 mAb 3F8 to GD2 ganglioside bearing melanoma cells
Conditions: GD2 (+) human melanoma cells
Protocol: Peptide mimics of GD2 ganglioside can be isolated by panning phage display peptide libraries with anti-GD2 ganglioside such as mAbs 3F8, 5F11, and KM666 that recognize different epitopes on GD2 ganglioside. Anti-GD2 ganglioside mAbs can be used to isolate phage that display antibody reactive peptides. After phage panning, the binding ability of isolated phage colonies to anti-GD2 ganglioside mAbs is tested with immunoscreening and further confirmed by ELISA. Anti-GD2 antibody reactive phage clone and the same phage without displaying peptides, can be utilized as a positive and a negative controls respectively in the immunoscreening and ELISA. In the positive phage clones, the DNA inserts that encode the antibody reactive peptides can be sequenced. Peptides can be synthesized based on the sequences of the DNA inserts. The synthesized peptides are tested in ELISA to determine their binding reactivity with corresponding anti-GD2 ganglioside mAbs. […] The synthetic peptides that inhibit or block the binding of anti-GD2 ganglioside mAbs to GD2 ganglioside can be tested as active immunotherapy candidates.
The synthesized peptides were tested with reverse ELISA and inhibition assay with mAb 3F8. […] Peptide J51 contains HLA-B7 and HLA-DRB1 binding motifs.

Question: For “cJ51: cyclic peptide J51, which mimics the structure of GD2 ganglioside (DCFRGDPYQPKWRLC; also: cyclic, cyclising bond not given here)”, which “inhibition of the binding of mAb 3F8 to GD2 ganglioside bearing melanoma cells” value is on record?
Answer: The value was “inhibit the binding”.

Question: For “DCFRGDPYQPKWRLC (J51 peptide mimic for GD2) [Peptide J51, GD2 peptide mimic from PVIII X15 library]”, which “inhibition of the binding of mAb 3F8 to GD2 ganglioside bearing melanoma cells” value is on record?
Answer: Its value is “inhibited the binding”.
